{"source": "ChEMBL document CHEMBL4811228", "about": "“Design, Synthesis, and Activity Evaluation of Novel Acyclic Nucleosides as Potential Anticancer Agents In Vitro and In Vivo” (J Med Chem, 2021)", "key": {"HCT-116 [1]": {"tested_on": "HCT-116", "test": "Antiproliferative activity against human HCT-116 cells assessed as reduction in cell viability incubated for 48 hrs by MTT assay", "format": "functional, cell-based", "conditions": "HCT-116, 48 h"}, "SW480 [2]": {"tested_on": "SW480", "test": "Antiproliferative activity against human SW480 cells assessed as reduction in cell viability incubated for 48 hrs by MTT assay", "format": "functional, cell-based", "conditions": "SW480, 48 h"}, "HCT-116 [3]": {"tested_on": "HCT-116", "test": "Potency index, ratio of 5-FU IC50 to test compound IC50 for antiproliferative activity against human HCT-116 cells", "format": "functional"}, "HCT-116 [4]": {"tested_on": "HCT-116", "test": "Induction of cell cycle arrest in human HCT-116 cells assessed as accumulation at G0/G1 phase at 16 uM incubated for 24 hrs by propidium iodide staining based flow cytometry", "format": "functional"}, "SW480 [5]": {"tested_on": "SW480", "test": "Induction of apoptosis in human SW480 cells assessed as viable cells at 2 uM incubated for 48 hrs by Annexin V-FITC/PI staining based flow cytometry (reference value: 90.56%)", "format": "functional", "conditions": "read-out: Activity"}, "SW480 [6]": {"tested_on": "SW480", "test": "Induction of apoptosis in human SW480 cells assessed as early apoptotic cells at 2 uM incubated for 48 hrs by Annexin V-FITC/PI staining based flow cytometry (reference value: 1.87%)", "format": "functional"}, "SW480 [7]": {"tested_on": "SW480", "test": "Induction of apoptosis in human SW480 cells assessed as late apoptotic cells at 2 uM incubated for 48 hrs by Annexin V-FITC/PI staining based flow cytometry (reference value: 4.67%)", "format": "functional"}, "SW480 [8]": {"tested_on": "SW480", "test": "Induction of apoptosis in human SW480 cells assessed as necrotic cells at 2 uM incubated for 48 hrs by Annexin V-FITC/PI staining based flow cytometry (reference value: 2.9%)", "format": "functional"}, "SW480 [9]": {"tested_on": "SW480", "test": "Induction of apoptosis in human SW480 cells assessed as viable cells at 4 uM incubated for 48 hrs by Annexin V-FITC/PI staining based flow cytometry (reference value: 90.56%)", "format": "functional", "conditions": "read-out: Activity"}, "SW480 [10]": {"tested_on": "SW480", "test": "Induction of apoptosis in human SW480 cells assessed as late apoptotic cells at 4 uM incubated for 48 hrs by Annexin V-FITC/PI staining based flow cytometry (reference value: 4.67%)", "format": "functional"}, "SW480 [11]": {"tested_on": "SW480", "test": "Induction of apoptosis in human SW480 cells assessed as early apoptotic cells at 8 uM incubated for 48 hrs by Annexin V-FITC/PI staining based flow cytometry (reference value: 1.87%)", "format": "functional"}, "SW480 [12]": {"tested_on": "SW480", "test": "Induction of apoptosis in human SW480 cells assessed as late apoptotic cells at 8 uM incubated for 48 hrs by Annexin V-FITC/PI staining based flow cytometry (reference value: 4.67%)", "format": "functional"}, "SW480 [13]": {"tested_on": "SW480", "test": "Induction of apoptosis in human SW480 cells assessed as viable cells at 16 uM incubated for 48 hrs by Annexin V-FITC/PI staining based flow cytometry (reference value: 90.56%)", "format": "functional", "conditions": "read-out: Activity"}, "SW480 [14]": {"tested_on": "SW480", "test": "Induction of apoptosis in human SW480 cells assessed as viable cells at 32 uM incubated for 48 hrs by Annexin V-FITC/PI staining based flow cytometry (reference value: 90.56%)", "format": "functional", "conditions": "read-out: Activity"}, "SW480 [15]": {"tested_on": "SW480", "test": "Induction of apoptosis in human SW480 cells assessed as late apoptotic cells at 32 uM incubated for 48 hrs by Annexin V-FITC/PI staining based flow cytometry (reference value: 4.67%)", "format": "functional"}, "SW480 [16]": {"tested_on": "SW480", "test": "Induction of apoptosis in human SW480 cells assessed as increase in Bax protein expression at 2 to 16 uM incubated for 48 hrs by western blot analysis", "format": "functional, cell-based", "conditions": "dose 2-16 µM"}, "SW480 [17]": {"tested_on": "SW480", "test": "Induction of apoptosis in human SW480 cells assessed as increase in p53 protein expression at 2 to 16 uM incubated for 48 hrs by western blot analysis", "format": "functional, cell-based", "conditions": "dose 2-16 µM"}, "SW480 [18]": {"tested_on": "SW480", "test": "Induction of apoptosis in human SW480 cells assessed as reduction in Bcl-xl protein expression at 2 to 16 uM incubated for 48 hrs by western blot analysis", "format": "functional, cell-based", "conditions": "dose 2-16 µM"}, "SW480 [19]": {"tested_on": "SW480", "test": "Induction of mitochondrial membrane potential loss in human SW480 cells assessed as cells with low MMP emitting green fluorescence at 2 uM incubated for 24 hrs by JC-1 staining based flow cytometry (reference value: 17.96%)", "format": "functional"}, "SW480 [20]": {"tested_on": "SW480", "test": "Induction of mitochondrial membrane potential loss in human SW480 cells assessed as cells with high MMP emitting red fluorescence at 2 uM incubated for 24 hrs by JC-1 staining based flow cytometry (reference value: 64.2%)", "format": "functional"}, "SW480 [21]": {"tested_on": "SW480", "test": "Induction of mitochondrial membrane potential loss in human SW480 cells assessed as cells with low MMP emitting green fluorescence at 8 uM incubated for 24 hrs by JC-1 staining based flow cytometry (reference value: 17.96%)", "format": "functional"}, "SW480 [22]": {"tested_on": "SW480", "test": "Induction of mitochondrial membrane potential loss in human SW480 cells assessed as increase in cells with low MMP emitting green fluorescence at 2 to 8 uM incubated for 24 hrs by JC-1 staining based fluorescence microscopy", "format": "functional, cell-based", "conditions": "dose 2-8 µM"}, "SW480 [23]": {"tested_on": "SW480", "test": "Induction of apoptosis in human SW480 cells at 4 to 8 uM pretreated with pan-caspase inhibitor, Q-VD-OPh followed by incubation with compound for 48 hrs by Annexin V-FITC/PI staining based flow cytometry", "format": "functional, cell-based", "conditions": "dose 4-8 µM"}, "HCT-116 [24]": {"tested_on": "HCT-116", "test": "Inhibition of colony formation in human HCT-116 cells at >=16 uM incubated for 48 hrs followed by culture medium replenishment for every 72 hrs and measured after 14 days by crystal violet staining based analysis", "format": "functional", "conditions": "dose microM >=16; time 14 day"}, "SW480 [25]": {"tested_on": "SW480", "test": "Inhibition of colony formation in human SW480 cells at 2 to 8 uM incubated for 48 hrs followed by culture medium replenishment for every 72 hrs and measured after 14 days by crystal violet staining based analysis", "format": "functional, cell-based", "conditions": "dose 2-8 µM, time 14.0 day"}, "SW480 [26]": {"tested_on": "SW480", "test": "Inhibition of colony formation in human SW480 cells at >=16 uM incubated for 48 hrs followed by culture medium replenishment for every 72 hrs and measured after 14 days by crystal violet staining based analysis", "format": "functional", "conditions": "dose microM >=16; time 14 day"}, "[27]": {"test": "Half life in mouse liver microsomes at 0.1 uM preincubated for 10 mins followed by NADPH addition and measured up to 60 mins by LC-MS/MS analysis", "format": "ADME, Microsome", "conditions": "time 70 min"}, "[28]": {"test": "Acute toxicity in BALB/c mouse assessed as animal survival at 300 mg/kg, ip administered per 4 hrs for 4 times and measured everyday for 14 days (reference value: 100%)", "format": "organism-based", "conditions": "in vivo, time 14 day"}, "[29]": {"test": "Acute toxicity in BALB/c mouse assessed as animal survival at 200 mg/kg, ip administered per 4 hrs for 4 times and measured everyday for 14 days (Rb =100%)", "format": "organism-based", "conditions": "in vivo, time 14 day"}, "[30]": {"test": "Acute toxicity in BALB/c mouse assessed as animal survival at 100 mg/kg, ip administered per 4 hrs for 4 times and measured everyday for 14 days (Rb =100%)", "format": "organism-based", "conditions": "in vivo, time 14 day"}, "SW480 [31]": {"tested_on": "SW480", "test": "Antitumor activity against human SW480 cells xenografted in ip dosed BALB/c mouse assessed as reduction in tumor volume administered every 2 days for 12 days", "format": "functional, organism-based", "conditions": "dose 25-50 mg/kg, time 12.0 day"}, "SW480 [32]": {"tested_on": "SW480", "test": "Antitumor activity against human SW480 cells xenografted in ip dosed BALB/c mouse assessed as reduction in tumor weight administered every 2 days for 12 days", "format": "functional, organism-based", "conditions": "dose 25-50 mg/kg, time 12.0 day"}, "[33]": {"test": "Toxicity in BALB/c mouse xenografted with human SW480 cells assessed as decrease in body weight at 25 to 50 mg/kg, ip administered every 2 days for 12 days", "format": "organism-based", "conditions": "in vivo, 288 h, dose 25-50 mg/kg, time 12 day"}, "SW480 [34]": {"tested_on": "SW480", "test": "Antitumor activity against human SW480 cells xenografted in BALB/c mouse assessed as reduction in tumor necrosis at 25 to 50 mg/kg, ip administered every 2 days for 12 days by hematoxyin-eosin staining based analysis", "format": "functional, organism-based", "conditions": "dose 25-50 mg/kg, time 12.0 day"}}, "note": "The source made the active and inactive calls. The rule behind the calls is not given here.", "data": [{"smiles": "CCCCCCCCCC(CCO)n1cnc2c(Cl)ncnc21", "note": "(racemic)", "values": [{"measurement": "IC50", "setting": "HCT-116 [1]", "value": 890, "unit": "nM"}, {"measurement": "IC50", "setting": "SW480 [2]", "value": 1150, "unit": "nM"}, {"measurement": "Ratio IC50", "setting": "HCT-116 [3]", "value": 10}, {"measurement": "Activity", "setting": "HCT-116 [4]", "value": "Active"}, {"measurement": "viability at 2 µM", "setting": "SW480 [5]", "value": 73.9, "unit": "%"}, {"measurement": "Activity", "setting": "SW480 [6]", "value": 5.2, "unit": "%"}, {"measurement": "Activity", "setting": "SW480 [7]", "value": 11.69, "unit": "%"}, {"measurement": "Activity", "setting": "SW480 [8]", "value": 9.2, "unit": "%"}, {"measurement": "viability at 4 µM", "setting": "SW480 [9]", "value": 71.5, "unit": "%"}, {"measurement": "Activity", "setting": "SW480 [10]", "value": 9.11, "unit": "%"}, {"measurement": "Activity", "setting": "SW480 [11]", "value": 11.03, "unit": "%"}, {"measurement": "Activity", "setting": "SW480 [12]", "value": 15.47, "unit": "%"}, {"measurement": "viability at 16 µM", "setting": "SW480 [13]", "value": 44, "unit": "%"}, {"measurement": "viability at 32 µM", "setting": "SW480 [14]", "value": 26.8, "unit": "%"}, {"measurement": "Activity", "setting": "SW480 [15]", "value": 13.76, "unit": "%"}, {"measurement": "Activity", "setting": "SW480 [16]", "value": "Active"}, {"measurement": "Activity", "setting": "SW480 [17]", "value": "Active"}, {"measurement": "Activity", "setting": "SW480 [18]", "value": "Active"}, {"measurement": "Activity", "setting": "SW480 [19]", "value": 28.88, "unit": "%"}, {"measurement": "Activity", "setting": "SW480 [20]", "value": 47.58, "unit": "%"}, {"measurement": "Activity", "setting": "SW480 [21]", "value": 36.6, "unit": "%"}, {"measurement": "Activity", "setting": "SW480 [22]", "value": "Active"}, {"measurement": "Activity", "setting": "SW480 [23]", "value": "Active"}, {"measurement": "inhibition (INH)", "setting": "HCT-116 [24]", "value": 100, "unit": "%"}, {"measurement": "inhibition", "setting": "SW480 [25]", "value": "Active"}, {"measurement": "inhibition (INH)", "setting": "SW480 [26]", "value": 100, "unit": "%"}, {"measurement": "half-life at 0.1 µM", "setting": "[27]", "value": 1, "unit": "min"}, {"measurement": "survival at 336 h", "setting": "[28]", "value": 0, "unit": "%"}, {"measurement": "survival at 336 h", "setting": "[29]", "value": 70, "unit": "%"}, {"measurement": "survival at 336 h", "setting": "[30]", "value": 100, "unit": "%"}, {"measurement": "Activity", "setting": "SW480 [31]", "value": "Dose-Dependent Effect"}, {"measurement": "Activity", "setting": "SW480 [32]", "value": "Dose-Dependent Effect"}, {"measurement": "Activity", "setting": "[33]", "value": "Non-Toxic"}, {"measurement": "Activity", "setting": "SW480 [34]", "value": "Active"}]}]}
